Measured values as given in US20120065198A2, “Detection and Treatment of Schizophrenia” (Tokai University Educational System, priority 2007, published 2012).

Tests used:
pentosidine formation [1] = assay: Inhibitory effect on AGEs (pentosidine) formation in serum of renal failure patients; format: biochemical, human; conditions: final concentration 5 mM, 1 week at 37° C.; for Pentosidine Formation Ratio (%): control as 100%; for AGE Formation Inhibition Ratio (%): determined from the pentosidine formation ratio
Procedure: To 450 μl of protein (serum of renal failure patients with an informed consent) was added 50 μl of a solution of each test compound in dimethylsulfoxide (final concentration: 5 mM), and the resulting mixture was incubated for 1 week at 37° C. The quantity of pentosidine, which is one of the AGEs formed, was subsequently measured as follows.
First, in order to release the pentosidine formed in the protein, 50 μl of 10% trichloroacetic acid was added to 50 μl of the reacted sample, and the mixture was centrifuged to precipitate the protein that was then collected. The collected protein was washed with 300 μl of 5% trichloroacetic acid and dried; 100 μl of 6 N hydrochloric acid was subsequently added, and hydrolysis was performed for 16 hours at 110° C. The quantity of pentosidine (nmol/l) formed was measured by HPLC using a fluorescence detector (ODS C18, 4.6×250 mm, 335 nm, 385 nm), according to a gradient method (30 minutes, 1.0 ml/min) using a mobile phase of distilled water containing 0.1% trifluoroacetic acid/80% acetonitrile containing 0.08% trifluoroacetic acid (Miyata, T et al.,: J. Am. Soc., Nephrol., 7, 1198-1206, 1996; Miyata, T., et al., Proc. Natl. Acad. Sci., USA, 93 2353-2358, 1996).
In order to evaluate the inhibitory effect of each test compound on AGE formation, the proportion of the quantity of pentosidine formed was calculated as the ratio (%) of pentosidine formation relative to the quantity of pentosidine formed with a control as 100%. Further, from the calculated value, the ratio of inhibition of pentosidine formation (the ratio (%) of inhibition of AGE formation) was also determined.

pentosidine formation [2] = assay: Inhibitory activity on pentosidine formation, samples incubated with BSA and arabinose; format: biochemical; conditions: 5 mM drug; incubated with BSA and arabinose instead of patient plasma
Procedure: Plasma was collected from hemodialysis patients prior to dialysis with the patients' consent, and the plasma was filtered and sterilized. To the plasma (450 μL) was added solutions of TM-2002 in dimethylsulfoxide (50 μL) (final concentrations: 0.8, 2.0, and 5.0 mM), and the mixtures were incubated for 1 week at 37° C. The levels of the pentosidine formation were measured.
Pentosidine was measured as follows. To each sample (50 μL) after incubation was added an equal volume of 10% trichloroacetic acid, and the mixture was subsequently centrifuged at 5,000 g for 5 minutes. After the supernatant was removed, the pellet was washed with 5% trichloroacetic acid (300 μL). The pellet was dried under reduced pressure, and subsequently hydrolyzed in a 6N HCl solution (100 μL) under a nitrogen atmosphere for 16 hours at 110° C. To the acid hydrolysate was then added 5N NaOH (100 μL) and 0.5 M phosphate buffer (pH 7.4) (200 μL); the mixture was subsequently filtered through a micropore filter with 0.5 μm pores and diluted with PBS. The concentration of the released pentosidine was measured by reverse-phase HPLC using a fluorescence detector (RF-10A, Shimadzu Corporation) (Miyata, T. et al.; Proc. Natl. Acad. Sci. USA, Vol. 93, p. 2353-2358, 1996). The effluent was monitored at the excitation/emission wavelength of 335/385 nm. Synthetic pentosidine was used as the reference material. The detection limit of pentosidine was 0.1 pmol/mg protein.
(2) Other edaravone analogues (Compounds (1) or (2)) were investigated for their inhibitory activities on pentosidine formation in the same manner as in Section (1) above, except that the samples were incubated with BSA and arabinose instead of the patient plasma. In the tables, “-” means that the test was not conducted.

SMILES	Pentosidine Formation Ratio (%) (pentosidine formation [1])	AGE Formation Inhibition Ratio (%) (pentosidine formation [1])	Pentosidine Formation Ratio (%) at 5 mM Drug Concentration (pentosidine formation [2]) [%]
CC1=NN(c2ccc(N)cc2)C(=O)C1CCO (centres unmarked) [(5)]	9.33	90.67	
NC1=NN(c2ccccc2)C(=O)C1C(=O)C(=O)Nc1ccccc1 (centres unmarked) [(1)]	18.1	81.9	
O=C(NC1=NN(c2ccccc2)C(=O)C1Sc1nnnn1-c1ccccc1)c1ccccc1 (centres unmarked) [(14)]	22.1	77.9	
CC1=NN(c2ccccc2)C(=O)C1C1C(=O)N(c2ccccc2)N=C1C (centres unmarked) [(17)]	35.0	65.0	
O=C1C2CCCC2=NN1c1ccccc1 (centres unmarked) [(10)]	18.0	82.0	
CCC1C(=O)N(c2ccc(Cl)cc2)N=C1C (centres unmarked) [(18)]	18.0	82.0	
CC1=NN(c2cccc([N+](=O)[O-])c2)C(=O)C1Sc1nnnn1-c1ccccc1 (centres unmarked) [(13)]	45.4	54.6	
CC1=NN(c2ccccc2)C(=O)C1CCC(=O)O (centres unmarked) [(7)]	27.2	72.8	
NC1=NN(c2ccccc2)C(=O)C1C(=O)C(=O)Nc1nccs1 (centres unmarked) [(2)]	26.1	73.9	
CCOC(=O)c1ccc(N2N=C(C(F)(F)F)/C(=C/c3cccs3)C2=O)cc1 [compound 50, 4-(5-oxo-4-thiophen-2-ylmethylene-3-trifluoromethyl-4,5-dihydro-pyrazol-1-yl)-benzoic acid ethyl ester]			63.17
COc1cc(/C=C2\C(=O)N(c3ccc(Cl)cc3)N=C2C(F)(F)F)ccc1O [compound 47, 2-(4-chloro-phenyl)-4-(4-hydroxy-3-methoxy-benzylidene)-5-trifluoromethyl-2,4-dihydro-pyrazol-3-one]			28.86
CC1=NN(c2cccc(Cl)c2)C(=O)/C1=C/c1cc2ccccc2[nH]c1=O [compound 38, 3-[1-(3-chloro-phenyl)-3-methyl-5-oxo-1,5-dihydro-pyrazol-4-ylidenemethyl]-1H-quinolin-2-one]			84.95
Cc1ncc2c(c1O)C(c1c(C)nn(-c3ccccc3)c1O)OC2 (centres unmarked) [compound 68]			2.82
CC1=NN(c2ccccc2Cl)C(=O)/C1=C/c1ccc(O)c(OCO)c1 [compound 31]			15.57
CC1=NN(c2ccc(F)cc2)C(=O)C1C(c1ccccc1O)c1c(C)nn(-c2ccc(F)cc2)c1O (centres unmarked) [compound 22, 2-(4-fluoro-phenyl)-4-[[1-(4-fluoro-phenyl)-5-hydroxy-3-methyl-1H-pyrazol-4-yl]-(2-hydroxy-phenyl)-methyl]-5-methyl-2,4-dihydro-pyrazol-3-one]			2.9
CC1=NN(c2ccccc2)C(=O)C1C(c1ccccc1)c1c(C)nn(-c2ccccc2)c1O (centres unmarked) [(9)]	30.8	69.2	
COC(=O)c1ccc(N2N=C(C)/C(=C/c3ccc4c(c3)OCO4)C2=O)cc1 [compound 40, 4-(4-benzo[1,3]dioxol-5-ylmethylene-3-methyl-5-oxo-4,5-dihydro-pyrazol-1-yl)-benzoic acid methyl ester]			32.37
CC1=NN(c2ccccc2)C(=O)/C1=C/c1ccc(Cl)cc1 [compound 67]			9.09

SMILES	Pentosidine Formation Ratio (%) (pentosidine formation [1])	AGE Formation Inhibition Ratio (%) (pentosidine formation [1])	Pentosidine Formation Ratio (%) at 5 mM Drug Concentration (pentosidine formation [2]) [%]
CC1=NN(c2ccc(C)cc2)C(=O)/C1=C/c1ccc(O)c(O)c1 [compound 44, 4-(3,4-dihydroxy-benzylidene)-5-methyl-2-p-toluyl-2,4-dihydro-pyrazol-3-one]			66.19
CC1=NN(c2ccccc2)C(=O)C1NS(=O)(=O)c1ccc(C)cc1 (centres unmarked) [(11)]	24.9	75.1	
NC1=NN(c2ccccc2)C(=O)C1Sc1nnnn1-c1ccccc1 (centres unmarked) [(6)]	16.8	83.2	
CC(=O)c1ccc(N2N=C(C)/C(=C3\C(=O)Nc4ccccc43)C2=O)cc1 [compound 45, 3-[1-(4-acetyl-phenyl)-3-methyl-5-oxo-1,5-dihydro-pyrazol-4-ylidene]-1,3-dihydro-indol-2-one]			19.22
CC1=NN(c2ccc(Cl)cc2)C(=O)/C1=C/c1ccc(O)cc1O [compound 42, 2-(4-chloro-phenyl)-4-(2,4-dihydroxy-benzylidene)-5-methyl-2,4-dihydro-pyrazol-3-one]			68.32
CC1=NN(c2cccc([N+](=O)[O-])c2)C(=O)C1Sc1nnnn1-c1ccccc1 (centres unmarked) [compound 13, 5-methyl-2-(3-nitro-phenyl)-4-(1-phenyl-1H-tetrazol-5-ylsulfanyl)-2,4-dihydro-pyrazol-3-one]			74.66
O=C1/C(=C\c2ccc(O)cc2)C(C(F)(F)F)=NN1c1ccccc1 [compound 53, 4-(4-hydroxy-benzylidene)-2-phenyl-5-trifluoromethyl-2,4-dihydro-pyrazol-3-one]			66.76
CC1=NN(c2ccccc2)C(=O)C1C(c1ccccc1)c1c(C)nn(-c2ccccc2)c1O (centres unmarked) [compound 9, 4-[(5-hydroxy-3-methyl-1-phenyl-1H-pyrazol-4-yl)-phenyl-methyl]-5-methyl-2-phenyl-2,4-dihydro-pyrazol-3-one]			7.52
CC1=NN(c2cccc(C(F)(F)F)c2)C(=O)/C1=C/C=C/c1ccccc1 [compound 33]			80.08
CC1=NN(c2cccc(C(=O)O)c2)C(=O)/C1=C\c1ccc(N2CCC(Cl)=N2)cc1 [compound 36, 3-{4-[4-(3-chloro-4,5-dihydro-pyrazol-1-yl)-benzylidene]-3-methyl-5-oxo-4,5-dihydro-pyrazol-1-yl}-benzoic acid]			26.37
CC1=NN(c2ccccc2)C(=O)C1(O)S(=O)(=O)[O-].[Na+] (centres unmarked) [compound 25, sodium 4-hydroxy-3-methyl-5-oxo-1-phenyl-4,5-dihydro-1H-pyrazole-4-sulfonate]			38.80
CCCC1=NN(c2ccccc2)C(=O)C1CC(=O)c1ccccc1 (centres unmarked) [(20)]	12.4	87.6	
C/C(=N\O)C1C(=O)N(c2ccccc2)N=C1c1ccccc1 (centres unmarked) [(16)]	25.8	74.2	
CC(=O)NC1C(=O)N(c2ccccc2)N=C1C (centres unmarked) [compound 12, N-(3-methyl-5-oxo-1-phenyl-4,5-dihydro-1H-pyrazol-4-yl)-acetamide]			54.21
CC(=O)NC1C(=O)N(c2ccccc2)N=C1C (centres unmarked) [(8)]	23.5	76.5	
CC1=NN(c2ccccc2)C(=O)C12C(c1ccccc1)C21C(=O)N(c2ccccc2)N=C1C (centres unmarked) [compound 30, 4,10-dimethyl-2,8,11-triphenyl-2,3,8,9-tetraza-dispiro[4.0.4.1]undeca-3,9-diene-1,7-dione]			62.43
CC1=NN(c2ccccc2)C(=O)/C1=C/N(C)C [compound 65, 4-dimethylaminomethylene-5-methyl-2-phenyl-2,4-dihydro-pyrazol-3-one]			62.43
